biological target: CYP46A1 (Homo sapiens, UniProt Q9Y6A2); assay: CYP46A1 Enzyme Assay 2 (testosterone substrate, HPLC-MS); format: biochemical; conditions: read-out: IC50 (CYP46A1 inhibitory activity)
Experimental: Briefly, in a 384-well plate format, 10 μL per well of an enzyme-substrate mixture of CYP46A1 (5 μM final concentration) and Testosterone ([…] final concentration) were dispensed to wells containing test compound. For CYP46A1 titration, 5 μL per well of serially diluted CYP46A1 (concentrations including 10 μM, 5 μM, and 2.5 μM) and Testosterone (concentration of […]) were dispensed. For Testosterone titration, 5 μL per well of serially diluted Testosterone (concentrations including 10 μM, 5 μM, and 2.5 μM) and CYP46A1 (concentration of 5 μM) were dispensed. The plates were centrifuged at 1000 rpm for 30 seconds, and then sealed and incubated at 37° C. for 30 minutes. The plate was removed from the incubator, and then 10 μL per well of NADPH-generating system were dispensed to initiate the reaction. The plates were incubated at 37° C. for 15 minutes, added with 80 μL per well of 100% methanol consisting 1 ng/ml diclofenac as internal standard, and then transferred for HPLC-MS.

Sequence of CYP46A1 (Q9Y6A2 whole entry): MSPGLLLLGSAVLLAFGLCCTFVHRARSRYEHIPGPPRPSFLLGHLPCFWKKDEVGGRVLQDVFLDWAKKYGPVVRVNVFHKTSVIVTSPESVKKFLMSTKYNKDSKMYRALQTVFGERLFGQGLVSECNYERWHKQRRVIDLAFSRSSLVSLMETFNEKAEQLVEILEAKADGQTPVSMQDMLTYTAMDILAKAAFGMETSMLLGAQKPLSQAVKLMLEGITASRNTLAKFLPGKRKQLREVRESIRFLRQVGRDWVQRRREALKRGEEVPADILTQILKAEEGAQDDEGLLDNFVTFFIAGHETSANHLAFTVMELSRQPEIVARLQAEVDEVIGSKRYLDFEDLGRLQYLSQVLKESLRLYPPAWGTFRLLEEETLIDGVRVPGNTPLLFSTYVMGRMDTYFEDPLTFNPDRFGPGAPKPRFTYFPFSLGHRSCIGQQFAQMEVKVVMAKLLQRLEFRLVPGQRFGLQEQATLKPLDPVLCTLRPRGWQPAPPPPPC

SMILES | IC50 [nM]
N#C[C@@]1(Cc2ccc(F)cc2)CCN(C(=O)c2cccnc2-c2ccncn2)C1 [Compound A236, (S)-3-(4-fluorobenzyl)-1-(2-(pyrimidin-4-yl)nicotinoyl)pyrrolidine-3-carbonitrile] | > 1000
N#CC1(CC2CC2)CCN(C(=O)c2cccnc2-c2ccncn2)CC1 [Compound A58, 4-(cyclopropylmethyl)-1-(2-(pyrimidin-4-yl)nicotinoyl)piperidine-4-carbonitrile] | 100 to 1000
N#C[C@]1(Cc2ccc(F)cc2)[C@@H]2CC[C@H]1CN(C(=O)c1cccnc1-c1ccncn1)C2 [Compound A253, (1R,5S,8r)-8-(4-fluorobenzyl)-3-(2-(pyrimidin-4-yl)nicotinoyl)-3-azabicyclo[3.2.1]octane-8-carbonitrile] | > 1000
N#CC1(CC2CC(F)(F)C2)CCN(C(=O)c2cccnc2-c2ccncn2)CC1 [Compound A54, 4-((3,3-difluorocyclobutyl)methyl)-1-(2-(pyrimidin-4-yl)nicotinoyl)piperidine-4-carbonitrile] | 100 to 1000
N#CC1(Cc2ccc(F)cc2)CCN(C(=O)c2cccnc2-n2ccnc2)CC1 [Compound A16, 1-(2-(1H-imidazol-1-yl)nicotinoyl)-4-(4-fluorobenzyl)piperidine-4-carbonitrile] | > 1000
N#CC1(Cc2ccc(F)cc2)CCN(C(=O)c2cccnc2-c2cnco2)CC1 [Compound A56, 4-(4-fluorobenzyl)-1-(2-(oxazol-5-yl)nicotinoyl)piperidine-4-carbonitrile] | 100 to 1000
Cc1ccc(C(=O)N2CCC(C#N)(Cc3ccc(F)cc3)CC2)c(-c2ccncn2)n1 [Compound A249, 4-(4-fluorobenzyl)-1-(6-methyl-2-(pyrimidin-4-yl)nicotinoyl)piperidine-4-carbonitrile] | > 1000
N#CC1(Cc2ccc(F)cc2)CCN(C(=O)c2cccnc2-c2cncnc2)CC1 [Compound A66, 4-(4-fluorobenzyl)-1-(2-(pyrimidin-5-yl)nicotinoyl)piperidine-4-carbonitrile] | 100 to 1000
N#CC1(Cc2cccc(F)c2F)CCN(C(=O)c2cccnc2-c2ccncn2)CC1 [Compound A209, 4-(2,3-difluorobenzyl)-1-(2-(pyrimidin-4-yl)nicotinoyl)piperidine-4-carbonitrile] | < 100
N#CC1(Cc2ccc(C(F)(F)F)cc2)CCN(C(=O)c2cccnc2-c2ccncc2)CC1 [Compound A285, 1-([2,4′-bipyridine]-3-carbonyl)-4-(4-(trifluoromethyl)benzyl)piperidine-4-carbonitrile] | < 100
N#CC1(Cc2ccc(Cl)cc2F)CCN(C(=O)c2cccnc2-c2ccncn2)CC1 [Compound A205, 4-(4-chloro-2-fluorobenzyl)-1-(2-(pyrimidin-4-yl)nicotinoyl)piperidine-4-carbonitrile] | < 100
N#CC1(Cc2c(F)cccc2F)CCN(C(=O)c2cccnc2-c2ccncc2)CC1 [Compound A274, 1-([2,4′-bipyridine]-3-carbonyl)-4-(2,6-difluorobenzyl)piperidine-4-carbonitrile] | < 100
CC(c1cc(F)cc(F)c1)C1(C#N)CCN(C(=O)c2cccnc2-c2ccncn2)CC1 (stereo in doubt) [Compound A258, (R)-4-(1-(3,5-difluorophenyl)ethyl)-1-(2-(pyrimidin-4-yl)nicotinoyl)piperidine-4-carbonitrile] | < 100
C[C@@H](c1c(F)cccc1F)C1(C#N)CCN(C(=O)c2cccnc2-c2ccncc2)CC1 [Compound A246, (R)-1-([2,4′-bipyridine]-3-carbonyl)-4-(1-(2,6-difluorophenyl)ethyl)piperidine-4-carbonitrile] | < 100
N#CC1(Cc2ccc(F)cc2)CCN(C(=O)c2cccnc2-c2ncncc2F)CC1 [Compound A233, 4-(4-fluorobenzyl)-1-(2-(5-fluoropyrimidin-4-yl)nicotinoyl)piperidine-4-carbonitrile] | > 1000
C[C@H](c1ccc(F)cc1F)C1(C#N)CCN(C(=O)c2cccnc2-c2ccncn2)CC1 [Compound A241, (S)-4-(1-(2,4-difluorophenyl)ethyl)-1-(2-(pyrimidin-4-yl)nicotinoyl)piperidine-4-carbonitrile] | < 100
N#CC1(Cc2ccc(Cl)cc2C2CC2)CCN(C(=O)c2cccnc2-c2ccncn2)CC1 [Compound A231, 4-(4-chloro-2-cyclopropylbenzyl)-1-(2-(pyrimidin-4-yl)nicotinoyl)piperidine-4-carbonitrile] | < 100
N#CC1(Cc2cccc(Cl)c2)CCN(C(=O)c2cccnc2-c2ccncn2)CC1 [Compound A210, 4-(3-chlorobenzyl)-1-(2-(pyrimidin-4-yl)nicotinoyl)piperidine-4-carbonitrile] | < 100
N#CC1(Cc2ccc(OC(F)(F)F)cc2)CCN(C(=O)c2cccnc2-c2ccncc2)CC1 [Compound A10, 1-([2,4′-bipyridine]-3-carbonyl)-4-(4-(trifluoromethoxy)benzyl)piperidine-4-carbonitrile] | < 100
C[C@@H](c1ccc(F)cc1F)C1(C#N)CCN(C(=O)c2cccnc2-c2ccncc2)CC1 [Compound A238, (R)-1-([2,4′-bipyridine]-3-carbonyl)-4-(1-(2,4-difluorophenyl)ethyl)piperidine-4-carbonitrile] | < 100
C[C@@H](c1ccc(C(F)(F)F)cc1)C1(C#N)CCN(C(=O)c2cccnc2-c2ccncn2)CC1 [Compound A250, (S)-1-(2-(pyrimidin-4-yl)nicotinoyl)-4-(1-(4-(trifluoromethyl)phenyl)ethyl)piperidine-4-carbonitrile] | < 100

The remaining lines, values ahead:

IC50 [nM] | SMILES
< 100 | N#CC1(Cc2c(F)cc(F)cc2F)CCN(C(=O)c2cccnc2-c2ccncc2)CC1 [Compound A272, 1-([2,4′-bipyridine]-3-carbonyl)-4-(2,4,6-trifluorobenzyl)piperidine-4-carbonitrile]
< 100 | N#CC1(Cc2ccc(C3CC3)cc2)CCN(C(=O)c2cccnc2-c2ccncn2)CC1 [Compound A212, 4-(4-cyclopropylbenzyl)-1-(2-(pyrimidin-4-yl)nicotinoyl)piperidine-4-carbonitrile]
< 100 | N#CC1(Cc2cc(F)cc(F)c2)CCN(C(=O)c2cccnc2-c2ccncn2)CC1 [Compound A213, 4-(3,5-difluorobenzyl)-1-(2-(pyrimidin-4-yl)nicotinoyl)piperidine-4-carbonitrile]
< 100 | CC(c1c(F)cc(F)cc1F)C1(C#N)CCN(C(=O)c2cccnc2-c2ccncn2)CC1 (stereo in doubt) [Compound A271, (R)-1-(2-(pyrimidin-4-yl)nicotinoyl)-4-(1-(2,4,6-trifluorophenyl)ethyl)piperidine-4-carbonitrile]
< 100 | N#CC1(Cc2ccc(C(F)(F)F)cc2F)CCN(C(=O)c2cccnc2-c2ccncc2)CC1 [Compound A255, 1-([2,4′-bipyridine]-3-carbonyl)-4-(2-fluoro-4-(trifluoromethyl)benzyl)piperidine-4-carbonitrile]
< 100 | C[C@H](c1ccc(C(F)(F)F)cc1F)C1(C#N)CCN(C(=O)c2cccnc2-c2ccncn2)CC1 [Compound A287, (S)-4-(1-(2-fluoro-4-(trifluoromethyl)phenyl)ethyl)-1-(2-(pyrimidin-4-yl)nicotinoyl)piperidine-4-carbonitrile]
< 100 | C[C@H](c1ccc(F)cc1)C1(C#N)CCN(C(=O)c2cccnc2-c2ccncn2)CC1 [Compound A45, (R)-4-(1-(4-fluorophenyl)ethyl)-1-(2-(pyrimidin-4-yl)nicotinoyl)piperidine-4-carbonitrile]
< 100 | N#CC1(Cc2c(F)cc(C(F)(F)F)cc2F)CCN(C(=O)c2cccnc2-c2ccncn2)CC1 [Compound A281, 4-(2,6-difluoro-4-(trifluoromethyl)benzyl)-1-(2-(pyrimidin-4-yl)nicotinoyl)piperidine-4-carbonitrile]
< 100 | N#CC1(Cc2ccc(F)c(F)c2)CCN(C(=O)c2cccnc2-c2ccncn2)CC1 [Compound A206, 4-(3,4-difluorobenzyl)-1-(2-(pyrimidin-4-yl)nicotinoyl)piperidine-4-carbonitrile]
< 100 | C[C@@H](c1ccc(C(F)(F)F)cc1F)C1(C#N)CCN(C(=O)c2cccnc2-c2ccncn2)CC1 [Compound A286, (R)-4-(1-(2-fluoro-4-(trifluoromethyl)phenyl)ethyl)-1-(2-(pyrimidin-4-yl)nicotinoyl)piperidine-4-carbonitrile]
< 100 | Cc1ccc(CC2(C#N)CCN(C(=O)c3cccnc3-c3ccncn3)CC2)cn1 [Compound A201, 4-((6-methylpyridin-3-yl)methyl)-1-(2-(pyrimidin-4-yl)nicotinoyl)piperidine-4-carbonitrile]
< 100 | N#CC1(Cc2ccccc2C2CC2)CCN(C(=O)c2cccnc2-c2ccncn2)CC1 [Compound A214, 4-(2-cyclopropylbenzyl)-1-(2-(pyrimidin-4-yl)nicotinoyl)piperidine-4-carbonitrile]
< 100 | N#CC1(Cc2ccccc2C(F)(F)F)CCN(C(=O)c2cccnc2-c2ccncc2)CC1 [Compound A275, 1-([2,4′-bipyridine]-3-carbonyl)-4-(2-(trifluoromethyl)benzyl)piperidine-4-carbonitrile]
< 100 | C[C@@H](c1c(F)cccc1F)C1(C#N)CCN(C(=O)c2cccnc2-c2ccncn2)CC1 [Compound A244, (R)-4-(1-(2,6-difluorophenyl)ethyl)-1-(2-(pyrimidin-4-yl)nicotinoyl)piperidine-4-carbonitrile]

From patent publication US20220332699A1 (SAGE THERAPEUTICS, INC., priority 2019, published 2022)
